In patent US7968098B2, “HLA-A24-binding KIF-derived peptide” (Kurume University, priority 2006, dated 2011):
Read-outs that look alike come from different tables or passages of the source. No end group written: not given here.

What was measured:
[1] = system: PBMCs of HLA-A24+ glioma patients; format: cell-based, human; settings: for Total (patients with induction of peptide-reactive CTLs): HLA-A24+ glioma patients, positive = P<0.05 and >100 pg/ml IFN-γ over HIV peptide; for IFN-γ: vs HIV peptide
[2] = system: anti-peptide immunoglobulin G (IgG) in plasma; assay: Anti-peptide IgG in plasma measured by the Luminex system; format: binding, human; settings: for Total (IgG-positive cases/total cases): positive = >1.25 times no peptide control; for Positive cases/total cases, Patients: Table 3, IgGs reactive to peptide in plasma of glioma patients; for Positive cases/total cases, Healthy donors: Table 3, IgGs reactive to peptide in plasma of healthy donors; for Positive cases/total cases, Total: Table 3, patients plus healthy donors; for Recognition by IgGs in the plasma compared with the other peptides: plasma of glioma patients and healthy donors
Procedure: The levels of anti-peptide immunoglobulin G (IgG) were measured by the Luminex™ system as previously reported (Komatsu N et al, Scand J Clin Invest 2004; 64: 1-11). In brief, plasma was incubated with 25 μl of peptide-coupled color-coded beads (Luminex Corp., Austin, Tex., USA) for 2 h at room temperature on a plate shaker. After incubation, the mixture was washed with a vacuum manifold apparatus and incubated with 100 μl of biotinylated goat anti-human IgG (BA-3080, Vector Laboratories, Burlingame, Calif., USA) for 1 h at room temperature. The plate was then washed, and 100 μl of streptavidin-PE (S-866, Molecular Probes, Eugene, Oreg., USA) was added to each well and was incubated for 30 min at room temperature on a plate shaker. The bound beads were washed three times followed by the addition of 100 μl of Tween-PBS to each well. Fifty μl of each sample was then examined using the Luminex™ system.
Next, the abilities of the KIF-derived peptides to be recognized by IgGs of glioma patients were examined, because IgGs reactive to CTL-directed peptides are detectable in the plasma of patients with different types of cancer (Nakatsura T et al, Eur J Immunol 32: 826-836, 2002), along with that levels of IgG well correlated with clinical responses of patients who received peptide vaccination as reported previously (Mine T et al, Clin Cancer Res 10: 929-937, 2004; Yajima N et al, Clin Cancer Res 11: 5900-5911, 2005). IgGs reactive to a corresponding peptide were judged to be significant when the immunofluorescence intensity in 1:100-diluted plasma exceeded 1.25 times that of the control samples with no peptides. […] Based on these findings, these 8 KIF peptides (3 for KIF1C, 3 for KIF3C, and 2 for KIF21B) were the focus of the following experiments.

KNS-81 cells = assay: 6-h 51Cr-release cytotoxicity assay of peptide-stimulated PBMCs / CD8+ T cells; format: cell-based, human; settings: for Cytotoxicity of peptide-induced CD8+ T cells on addition of anti-HLA class I mAb / Cytotoxicity on addition of unlabeled C1R-A24 cells pre-pulsed with corresponding KIF peptide (cold inhibition): KNS-81 cells; for Cytotoxicity of peptide-induced CD8+ T cells on addition of anti-HLA class I mAb: FIG. 3A, not inhibited by anti-HLA class II (HLA-DR) or anti-CD14 mAb; for Cytotoxicity on addition of unlabeled C1R-A24 cells pre-pulsed with corresponding KIF peptide (cold inhibition): FIG. 3B, not inhibited by HIV peptide-pulsed C1R-A24 cells; for Cytotoxicity of peptide-stimulated PBMCs against KNS-81 cells: patients 3 and 5, HLA-A24+ KNS-81 vs HLA-A24- No. 11 cells and HLA-A24+ T-cell blasts
Procedure: Peptide-stimulated PBMCs were tested for their cytotoxicity against No. 11 (HLA-A24 negative) and KNS-81 (HLA-A24 positive) by a standard 6-h ^51Cr-release assay. Phytohaemagglutinin (PHA)-activated T cells (T cell blast) from HLA-A24 positive healthy donors were used as a negative control. The PBMCs were stimulated with each of the KIF peptides (10 μg/ml) in the presence of IL-2 (100 units/ml) every 3 days for 15 days, followed by incubation with IL-2 alone for an additional 15 days. After CD8^+ T cells were positively isolated using a CD8-positive isolation kit (Dynal, Oslo, Norway), 2,000 ^51Cr-labeled cells per well were cultured with effector cells in 96-round-well plates. The specific ^51Cr-release was calculated according to the following formula: % specific lysis=(test sample release−spontaneous release)×100/(maximum release−spontaneous release). Spontaneous release was determined using the supernatant of the sample incubated with no effector cells, and the maximum release was then determined by the supernatant of the sample incubated with 1% Triton X (Wako Pure Chemical Industries, Osaka, Japan). In some experiments, anti-HLA class I (W6/32, mouse IgG2a) (BioLegend, Camino Santa Fe, San Diego, Calif., USA), anti-HLA class II (HLA-DR) (L243, mouse IgG2a) (ATCC #HB-55), and anti-CD14 (JML-H14, mouse IgG2a) (established in Department of Immunology, Kurume University) mAb were added to the wells at the initiation of the culture. The specificity of peptide-stimulated PBMCs was also confirmed by a cold inhibition assay. 20,000 unlabeled C1R-A24 cells, which were pre-pulsed with either the HIV peptide or a corresponding peptide, were used as cold target cells. Unlabeled C1R-A24 cells were added at a hot to cold target ratio of […].

[3] = PBMCs of HLA-A24+ glioma Patient 1, 10 μg/ml peptide
[4] = PBMCs of HLA-A24+ glioma Patient 2, 10 μg/ml peptide
[5] = PBMCs of HLA-A24+ glioma Patient 4, 10 μg/ml peptide
[6] = PBMCs of HLA-A24+ glioma Patient 5, 10 μg/ml peptide
[7] = PBMCs of HLA-A24+ glioma Patient 8, 10 μg/ml peptide
[8] = PBMCs of HLA-A24+ glioma Patient 10, 10 μg/ml peptide
[9] = Healthy donor 2, 1:100-diluted plasma
[10] = Healthy donor 4, 1:100-diluted plasma
[11] = glioma Patient 4, 1:100-diluted plasma
[12] = glioma Patient 8, 1:100-diluted plasma
[13] = glioma Patient 9, 1:100-diluted plasma
[14] = PBMCs of HLA-A24+ glioma Patient 3, 10 μg/ml peptide
[15] = PBMCs of HLA-A24+ glioma Patient 9, 10 μg/ml peptide

Row | Sequence | Total (patients with induction of peptide-reactive CTLs) [1] | IFN-γ [1, 3] | IFN-γ [1, 4] | IFN-γ [1, 5] | IFN-γ [1, 6] | IFN-γ [1, 7] | IFN-γ [1, 8] | Immunofluoresence intensity [2, 9] | Immunofluoresence intensity [2, 10] | Total (IgG-positive cases/total cases) ([2]; Table 2, glioma patients) | Total (IgG-positive cases/total cases) ([2]; Table 2, healthy donors) | Positive cases/total cases, Patients [2] | Positive cases/total cases, Healthy donors [2] | Positive cases/total cases, Total [2] | Immunofluoresence intensity [2, 11] | Immunofluoresence intensity [2, 12] | Immunofluoresence intensity [2, 13] | Recognition by IgGs in the plasma compared with the other peptides [2] | Cytotoxicity of peptide-induced CD8+ T cells on addition of anti-HLA class I mAb (KNS-81 cells) | Cytotoxicity on addition of unlabeled C1R-A24 cells pre-pulsed with corresponding KIF peptide (cold inhibition) (KNS-81 cells) | other results
1 | IYCERVRDL (KIF1C 149-157 peptide) | 4/10 | 92 pg/mL | 0 pg/mL | 50 pg/mL | 0 pg/mL | 0 pg/mL | 0 pg/mL | 31.8 | 47.8 | 7/10 | 8/10 | 7/10 | 8/10 | 15/20 | 29.5 | 12.3 | 27.3 | more frequently | – | – | –
2 | IYCERVRDLL [KIF1C 149-158] | – | – | – | – | – | – | – | – | – | – | – | – | – | – | – | – | – | – | significantly inhibited | significantly inhibited | Cytotoxicity of peptide-stimulated PBMCs against KNS-81 cells (KNS-81 cells): higher level of cytotoxicity against HLA-A24^+ KNS-81 cells
3 | KYKAMESKL [KIF3C 512-520] | – | – | – | – | – | – | – | – | – | – | – | – | – | – | – | – | – | – | significantly inhibited | significantly inhibited | Cytotoxicity of peptide-stimulated PBMCs against KNS-81 cells (KNS-81 cells): higher level of cytotoxicity against HLA-A24^+ KNS-81 cells
4 | NYLQEQKERL (KIF3C 458-467 peptide) | 3/10 | 34 pg/mL | 0 pg/mL | – | 66 pg/mL | 38 pg/mL | 0 pg/mL | – | – | – | – | 4/10 | 4/10 | 8/20 | – | – | – | more frequently | – | – | IFN-γ [1, 14]: 30 pg/mL; IFN-γ ([1]; PBMCs of HLA-A24+ glioma Patient 6, 10 μg/ml peptide): 55 pg/mL
5 | RYADRTKQI (KIF1C 340-348 peptide) | 3/10 | 66 pg/mL | 16 pg/mL | 80 pg/mL | – | 96 pg/mL | 0 pg/mL | 21.5 | 45.3 | 7/10 | 7/10 | 7/10 | 7/10 | 14/20 | 26.0 | 14.8 | 17.5 | more frequently | – | – | IFN-γ ([1]; PBMCs of HLA-A24+ glioma Patient 7, 10 μg/ml peptide): 65 pg/mL; IFN-γ [1, 15]: 52 pg/mL; Immunofluoresence intensity ([2]; Healthy donor 5, 1:100-diluted plasma): 59.0
6 | RYRAENIMF (KIF3C 702-710 peptide) | 3/10 | 11 pg/mL | 0 pg/mL | 0 pg/mL | – | 96 pg/mL | 0 pg/mL | – | – | – | – | 7/10 | 9/10 | 16/20 | – | – | – | more frequently | – | – | IFN-γ [1, 14]: 73 pg/mL; IFN-γ [1, 15]: 22 pg/mL
